Assay results as given in US20250098679A1, “HERBICIDAL PYRIDONE DERIVATIVES” (SYNGENTA CROP PROTECTION AG, priority 2021, published 2025).

Columns and labels:
Assay type in all cases: in vivo
Settings in all cases: evaluated after 13 days
[1] = test system: Echinochloa crus-galli (ECHCG); experiment: Post-emergence Test, Echinochloa crus-galli (ECHCG); design: key to percentage damage caused to the plant, ECHCG (five-point scale): 5=81-100%, 4=61-80%, 3=41-60%, 2=21-40%, 1=0-20% damage
Method in brief: (§1)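 Sown pots in a glasshouse (24/16 °C day/night, 14 h light, 65% humidity) were sprayed with compound in acetone/water (50:50) with 0.5% Tween 20, at 1000 g/ha unless otherwise stated. Damage was assessed 13 days after spraying and scored 1–5 (5=81-100%, 1=0-20%).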

[2] = test system: Ipomoea hederacea (IPOHE); experiment: Pre-emergence Test, Ipomoea hederacea (IPOHE)
[3] = test system: Amaranthus palmeri (AMAPA); experiment: Post-emergence Test, Amaranthus palmeri (AMAPA); design: key: 5=81-100%, 4=61-80%, 3=41-60%, 2=21-40%, 1=0-20% damage
Method in brief: as §1

Setaria faberi (SETFA) [4] = experiment: Post-emergence Test, Setaria faberi (SETFA); design: key to percentage damage caused to the plant, SETFA (five-point scale): 5=81-100%, 4=61-80%, 3=41-60%, 2=21-40%, 1=0-20% damage
Method in brief: as §1

Setaria faberi (SETFA) [5] = experiment: Pre-emergence Test, Setaria faberi (SETFA)
[6] = test system: Echinochloa crus-galli (ECHCG); experiment: Pre-emergence Test, Echinochloa crus-galli (ECHCG)
[7] = test system: Amaranthus retoflexus (AMARE); experiment: Pre-emergence Test, Amaranthus retoflexus (AMARE)
Zea mays (ZEAMX) [8] = experiment: Pre-emergence Test, Zea mays (ZEAMX)
[9] = test system: Amaranthus retoflexus (AMARE); experiment: Post-emergence Test, Amaranthus retoflexus (AMARE); design: key to percentage damage caused to the plant, AMARE (five-point scale): 5=81-100%, 4=61-80%, 3=41-60%, 2=21-40%, 1=0-20% damage
Method in brief: as §1

Zea mays (ZEAMX) [10] = experiment: Post-emergence Test, Zea mays (ZEAMX); design: key to percentage damage caused to the plant, ZEAMX (five-point scale): 5=81-100%, 4=61-80%, 3=41-60%, 2=21-40%, 1=0-20% damage
Method in brief: as §1

[11] = test system: Ipomoea hederacea (IPOHE); experiment: Post-emergence Test, Ipomoea hederacea (IPOHE); design: key to percentage damage caused to the plant, IPOHE (five-point scale): 5=81-100%, 4=61-80%, 3=41-60%, 2=21-40%, 1=0-20% damage
Method in brief: as §1

[12] = test system: Amaranthus palmeri (AMAPA); experiment: Pre-emergence Test, Amaranthus palmeri (AMAPA)

Structure (SMILES)	percentage damage caused to the plant, ECHCG (five-point scale) ([1]; 250 g/Ha)	percentage damage caused to the plant, ECHCG (five-point scale) ([1]; 1000 g/ha)	Pre-emergence Test IPOHE, percentage damage caused to the plant (five-point scale) ([2]; 250 g/Ha (*))	Pre-emergence Test IPOHE, percentage damage caused to the plant (five-point scale) ([2]; 1000 g/ha)	percentage damage caused to the plant, AMAPA (five-point scale) ([3]; 250 g/Ha)	percentage damage caused to the plant, AMAPA (five-point scale) ([3]; 1000 g/ha)	percentage damage caused to the plant, SETFA (five-point scale) (Setaria faberi (SETFA) [4]; 250 g/Ha)	percentage damage caused to the plant, SETFA (five-point scale) (Setaria faberi (SETFA) [4]; 1000 g/ha)	Pre-emergence Test SETFA, percentage damage caused to the plant (five-point scale) (Setaria faberi (SETFA) [5]; 250 g/Ha (*))	Pre-emergence Test SETFA, percentage damage caused to the plant (five-point scale) (Setaria faberi (SETFA) [5]; 1000 g/ha)	Pre-emergence Test ECHCG, percentage damage caused to the plant (five-point scale) ([6]; 250 g/Ha (*))	Pre-emergence Test ECHCG, percentage damage caused to the plant (five-point scale) ([6]; 1000 g/ha)	Pre-emergence Test AMARE, percentage damage caused to the plant (five-point scale) ([7]; 250 g/Ha (*))	Pre-emergence Test AMARE, percentage damage caused to the plant (five-point scale) ([7]; 1000 g/ha)	Pre-emergence Test ZEAMX, percentage damage caused to the plant (five-point scale) (Zea mays (ZEAMX) [8]; 250 g/Ha (*))	Pre-emergence Test ZEAMX, percentage damage caused to the plant (five-point scale) (Zea mays (ZEAMX) [8]; 1000 g/ha)	percentage damage caused to the plant, AMARE (five-point scale) ([9]; 250 g/Ha)	percentage damage caused to the plant, AMARE (five-point scale) ([9]; 1000 g/ha)	percentage damage caused to the plant, ZEAMX (five-point scale) (Zea mays (ZEAMX) [10]; 250 g/Ha)	percentage damage caused to the plant, IPOHE (five-point scale) ([11]; 250 g/Ha)	other results
CCn1c(Cn2cc3c(n2)COC3)cc(=O)c(C(=O)O)c1-c1ccc(Cl)c(Cl)c1 [Compound 92, 2-(3,4-dichlorophenyl)-6-(4,6-dihydrofuro[3,4-c]pyrazol-2-ylmethyl)-1-ethyl-4-oxo-pyridine-3-carboxylic acid]	3 (3=41-60%)	4 (4=61-80%)	3 (3=41-60%)	2 (2=21-40%)	2 (2=21-40%)	2 (2=21-40%)	3 (3=41-60%)	3 (3=41-60%)	3 (3=41-60%)	4 (4=61-80%)	3 (3=41-60%)	4 (4=61-80%)	0	0	0	0	2 (2=21-40%)	2 (2=21-40%)	2 (2=21-40%)	3 (3=41-60%)	percentage damage caused to the plant, ZEAMX (five-point scale) (Zea mays (ZEAMX) [10]; 1000 g/ha): 2 (2=21-40%); percentage damage caused to the plant, IPOHE (five-point scale) ([11]; 1000 g/ha): 3 (3=41-60%); Pre-emergence Test AMAPA, percentage damage caused to the plant (five-point scale) ([12]; 250 g/Ha (*)): 1 (1=0-20%); Pre-emergence Test AMAPA, percentage damage caused to the plant (five-point scale) ([12]; 1000 g/ha): 2 (2=21-40%)
CCn1c(Cn2ccc(OC(F)F)n2)cc(=O)c(C(=O)O)c1-c1ccc(Cl)c(Cl)c1 [Compound 37, 2-(3,4-dichlorophenyl)-6-[[3-(difluoromethoxy)pyrazol-1-yl]methyl]-1-ethyl-4-oxo-pyridine-3-carboxylic acid]	4 (4=61-80%)	4 (4=61-80%)		4 (4=61-80%)	2 (2=21-40%)	4 (4=61-80%)	4 (4=61-80%)	5 (5=81-100%)		5 (5=81-100%)		5 (5=81-100%)		1 (1=0-20%)		5 (5=81-100%)	2 (2=21-40%)	1 (1=0-20%)	1 (1=0-20%)	4 (4=61-80%)	percentage damage caused to the plant, ZEAMX (five-point scale) (Zea mays (ZEAMX) [10]; 1000 g/ha): 4 (4=61-80%); percentage damage caused to the plant, IPOHE (five-point scale) ([11]; 1000 g/ha): 2 (2=21-40%); Pre-emergence Test AMAPA, percentage damage caused to the plant (five-point scale) ([12]; 1000 g/ha): 2 (2=21-40%)
CCn1c(Cn2nc(C(F)(F)F)cc2Cl)cc(=O)c(C(=O)O)c1-c1ccc(Cl)c(Cl)c1 [Compound 169, 6-[[5-chloro-3-(trifluoromethyl)pyrazol-1-yl]methyl]-2-(3,4-dichlorophenyl)-1-ethyl-4-oxo-pyridine-3-carboxylic acid]	3 (3=41-60%)		1 (1=0-20%)		3 (3=41-60%)		4 (4=61-80%)		5 (5=81-100%)		4 (4=61-80%)		1 (1=0-20%)		0		3 (3=41-60%)		4 (4=61-80%)	4 (4=61-80%)	Pre-emergence Test AMAPA, percentage damage caused to the plant (five-point scale) ([12]; 250 g/Ha (*)): 1 (1=0-20%)
CCn1c(Cn2cncc2C(F)(F)F)cc(=O)c(C(=O)O)c1-c1ccc(Cl)c(Cl)c1 [Compound 16, 2-(3,4-dichlorophenyl)-1-ethyl-4-oxo-6-[[5-(trifluoromethyl)imidazol-1-yl]methyl]pyridine-3-carboxylic acid]	2 (2=21-40%)	4 (4=61-80%)	0	0	4 (4=61-80%)	5 (5=81-100%)	2 (2=21-40%)	5 (5=81-100%)	0	1 (1=0-20%)	1 (1=0-20%)	4 (4=61-80%)	1 (1=0-20%)	4 (4=61-80%)	0	0	4 (4=61-80%)	1 (1=0-20%)	0	2 (2=21-40%)	percentage damage caused to the plant, ZEAMX (five-point scale) (Zea mays (ZEAMX) [10]; 1000 g/ha): 4 (4=61-80%); percentage damage caused to the plant, IPOHE (five-point scale) ([11]; 1000 g/ha): 5 (5=81-100%); Pre-emergence Test AMAPA, percentage damage caused to the plant (five-point scale) ([12]; 250 g/Ha (*)): 3 (3=41-60%); Pre-emergence Test AMAPA, percentage damage caused to the plant (five-point scale) ([12]; 1000 g/ha): 5 (5=81-100%)
